Measured values taken from patent publication US20260337182A1, “COMPOUNDS AND COMPOSITIONS USEFUL AS INHIBITORS OF IAPs” (Tract Pharmaceuticals, Inc., priority 2022, published 2026).

Experiments:
[1] = tested on: pancreatic cancer stem cells; assay: percent survival of pancreatic cancer stem cells; type: cell-based, human; conditions: varying concentrations; FIG. 9
Excerpt: FIG. 9 depicts treatment of pancreatic cancer with compounds I-9, I-10; I-3; I-11. FIG. 9 depicts the % survival of pancreatic cancer stem cells at varying concentrations of I-9; I-10; I-3; I-11.
(§1) The present example describes methods used for testing the efficacy of compounds described herein. The selective growth of stem cells of cancers, of their precursor lesions, and of normal and chronically diseased epithelial tissues is described in the references below. In brief, biopsied tissues are reduced to single cell suspensions and plated onto lawns of irradiated 3T3-J2 feeder cells in specialized StemEcho media and libraries of colonies are evident in 7-10 days. Single cell-derived clones are generated by single cell FACS sorting to 384 well plates and wells with individual colonies are expanded, analyzed by molecular genetics, and grown as discrete clones.
(§2) Approximately 400,000 cells from discrete clones relevant to particular disease states (cancer, chronic inflammatory disease) are plated into 384 plates previously seeded with irradiated feeder cells, allowed to grow for 5 days, and then exposed to the test compounds in a serial dilution format. After 2-5 days, the cells are fixed using paraformaldehyde and the human cells are labelled with human-specific antibodies followed by fluorochrome-labelled secondary antibodies. Human cell numbers are quantified via high-throughput imaging technology (CellInsight CX7 LED, Thermo), and data analyzed by Excel.

[2] = tested on: gastric cancer stem cells; assay: percent survival of (diffuse) gastric cancer stem cells; type: cell-based, human; conditions: two individuals with diffuse gastric cancer; FIG. 7A, 7D
Excerpt: FIG. 7 depicts treatment of various diseases with compounds I-2 and I-5. FIG. 7A depicts % survival of diffused gastric adenocarcinoma with ascites cells with varying concentrations of compounds I-2 and I-5. FIG. 7B depicts % survival of advanced Barret's cells with varying concentrations of compounds I-2 and I-5. FIG. 7C depicts % survival of high-grade serous ovarian cancer cells with varying concentrations of compounds I-2 and I-5. FIG. 7D depicts % survival of gastric cancer with varying concentrations of compounds I-2 and I-5. FIG. 7E depicts % survival taxol resistant ovarian cancer stem cells with varying concentrations of compounds I-2 and I-5. […]
(§3) The present example describes methods used for testing the efficacy of compounds described herein. […] Single cell-derived clones are generated by single cell FACS sorting to 384 well plates and wells with individual colonies are expanded, analyzed by molecular genetics, and grown as discrete clones.
(§4) Approximately 400,000 cells from discrete clones relevant to particular disease states (cancer, chronic inflammatory disease) are plated into 384 plates previously seeded with irradiated feeder cells, allowed to grow for 5 days, and then exposed to the test compounds in a serial dilution format. […] Human cell numbers are quantified via high-throughput imaging technology (CellInsight CX7 LED, Thermo), and data analyzed by Excel.

[3] = tested on: esophageal adenocarcinoma stem cells; assay: percent survival of esophageal adenocarcinoma stem cells; type: cell-based, human; conditions: FIG. 2; versus other IAP inhibitors of Table 1
Excerpt: FIG. 2 depicts treatment of esophageal adenocarcinoma stem cells with compounds described herein. The concentration of the compound used and percent survival of the cells is provided.
FIG. 6 depicts treatment of Barrett's low grade dysplasia and esophageal adenocarcinoma with compound I-1. FIG. 6A depicts the % survival of Barrett's low grade dysplasia stem cells at higher concentration of compound I-1. FIG. 6B depicts the % survival of Barrett's low grade dysplasia stem cells at lower concentration of compound I-1. FIG. 6C depicts the % survival of esophageal adenocarcinoma stem cells at higher concentration of compound I-1. […]
as §3, §4

[4] = tested on: advanced Barrett's esophagus stem cells; assay: percent survival of advanced Barrett's esophagus stem cells; type: cell-based, human
Excerpt: FIG. 4 depicts treatment of advanced Barrett's esophagus stem cells with compound I-1 in cells isolated from two different patients. FIG. 4A depicts the % survival of Barrett's esophagus stem cells from a first patient at higher concentration of compound I-1. FIG. 4B depicts the % survival of Barrett's esophagus cells from a first patient at lower concentration of compound I-1. FIG. 4C depicts the % survival of Barrett's esophagus cells from a second patient at higher concentration of compound I-1. FIG. 4D depicts the % survival of Barrett's esophagus stem cells from a second patient at lower concentration of compound I-1.
FIG. 7 depicts treatment of various diseases with compounds I-2 and I-5. FIG. 7A depicts % survival of diffused gastric adenocarcinoma with ascites cells with varying concentrations of compounds I-2 and I-5. FIG. 7B depicts % survival of advanced Barret's cells with varying concentrations of compounds I-2 and I-5. FIG. 7C depicts % survival of high-grade serous ovarian cancer cells with varying concentrations of compounds I-2 and I-5. […]
The present example describes methods used for testing the efficacy of compounds described herein. […] Single cell-derived clones are generated by single cell FACS sorting to 384 well plates and wells with individual colonies are expanded, analyzed by molecular genetics, and grown as discrete clones. […]

[5] = tested on: Barrett's esophagus cells; assay: percent survival of Barrett's esophagus cells; type: cell-based, human; conditions: FIG. 1; for sensitivity of Barrett's esophagus cells compared to the other compounds of Table 1: versus other IAP inhibitors of Table 1
Method: FIG. 1 depicts treatment of Barrett's esophagus cells with compounds described herein. The concentration of the compound used and percent survival of the cells is provided.
Cells isolated from individuals diagnosed with or suffering from Barrett's esophagus were treated with the indicated compounds.
as §1, §2

[6] = tested on: Barrett's high grade dysplasia stem cells; assay: percent survival of Barrett's high grade dysplasia stem cells; type: cell-based, human; conditions: FIG. 5A, 5B
Excerpt: FIG. 5 depicts treatment of Barrett's high grade dysplasia and diffuse gastric cancer with compound I-1. FIG. 5A depicts the % survival of Barrett's high grade dysplasia stem cells at higher concentration of compound I-1. FIG. 5B depicts the % survival of Barrett's high grade dysplasia stem cells at lower concentration of compound I-1. FIG. 5C depicts the % survival of diffuse gastric cancer stem cells at higher concentration of compound I-1. FIG. 5D depicts the % survival of diffuse gastric cancer stem cells at lower concentration of compound I-1.
(§5) FIG. 8 depicts treatment of Barrett's low grade dysplasia and high grade dysplasia with compounds I-1; I-2; I-6; and I-3. […]
as §3, §4

[7] = tested on: Barrett's low grade dysplasia stem cells; assay: percent survival of Barrett's low grade dysplasia stem cells; type: cell-based, human; conditions: FIG. 6A, 6B
Excerpt: FIG. 6 depicts treatment of Barrett's low grade dysplasia and esophageal adenocarcinoma with compound I-1. FIG. 6A depicts the % survival of Barrett's low grade dysplasia stem cells at higher concentration of compound I-1. FIG. 6B depicts the % survival of Barrett's low grade dysplasia stem cells at lower concentration of compound I-1. FIG. 6C depicts the % survival of esophageal adenocarcinoma stem cells at higher concentration of compound I-1. FIG. 6D depicts the % survival of esophageal adenocarcinoma cells at lower concentration of compound I-1.
as §5, §3, §4

[8] = tested on: lung adenocarcinoma stem cells; assay: percent survival of lung adenocarcinoma stem cells; type: cell-based, human; conditions: FIG. 3A, 3B
Method: FIG. 3 depicts treatment of lung adenocarcinoma stem cells with compound I-1. FIG. 3A depicts the % survival of lung adenocarcinoma stem cells at higher concentration of compound I-1. FIG. 3B depicts the % survival of lung adenocarcinoma stem cells at lower concentration of compound I-1.
Specifically, lung adenocarcinoma stem cells from an additional individual were tested and treated at higher (nM) or low (pM) concentrations of I-1 (FIG. 3A and FIG. 3B).
The present example describes methods used for testing the efficacy of compounds described herein. The selective growth of stem cells of cancers, of their precursor lesions, and of normal and chronically diseased epithelial tissues is described in the references below. […] Single cell-derived clones are generated by single cell FACS sorting to 384 well plates and wells with individual colonies are expanded, analyzed by molecular genetics, and grown as discrete clones.
as §4

[9] = tested on: cIAP1; conditions: inhibits cIAP1; cited from earlier work

## CN[C@@H](C)C(=O)N[C@H](C(=O)N1CCC[C@H]1C(=O)N[C@H]1c2ccccc2C[C@H]1OCCCCCCNc1c(NCCCCCCO[C@@H]2Cc3ccccc3[C@@H]2NC(=O)[C@@H]2CCCN2C(=O)[C@@H](NC(=O)[C@H](C)NC)C2CCCCC2)c(=O)c1=O)C1CCCCC1 [I-11]
[1]
  sensitivity of pancreatic cancer stem cells: sensitive

## CN[C@@H](C)C(=O)N[C@H](C(=O)N1CCC[C@H]1C(=O)N[C@H]1c2ccccc2C[C@H]1OCCNc1c(NCCO[C@@H]2Cc3ccccc3[C@@H]2NC(=O)[C@@H]2CCCN2C(=O)[C@@H](NC(=O)[C@H](C)NC)C2CCCCC2)c(=O)c1=O)C1CCCCC1 [I-2]
[2]
  sensitivity of gastric cancer stem cells: sensitive
[3]
  sensitivity of esophageal adenocarcinoma stem cells compared to the other compounds of Table 1: significantly more sensitive
[4]; additional individual, varying concentrations, FIG. 7B
  sensitivity of advanced Barrett's esophagus stem cells: notably sensitive
[5]
  sensitivity of Barrett's esophagus cells: particularly sensitive
  sensitivity of Barrett's esophagus cells compared to the other compounds of Table 1: significantly more sensitive

## CN[C@@H](C)C(=O)N[C@H](C(=O)N1CCC[C@H]1C(=O)N[C@H]1c2ccccc2C[C@H]1OCCOCCNc1c(NCCOCCO[C@@H]2Cc3ccccc3[C@@H]2NC(=O)[C@@H]2CCCN2C(=O)[C@@H](NC(=O)[C@H](C)NC)C2CCCCC2)c(=O)c1=O)C1CCCCC1 [I-1]
[6]
  sensitivity of Barrett's high grade dysplasia stem cells: sensitive
[3]
  sensitivity of esophageal adenocarcinoma stem cells compared to the other compounds of Table 1: significantly more sensitive
[4]; two individuals, higher (nM) or low (pM) concentrations, FIG. 4A-4D
  sensitivity of advanced Barrett's esophagus stem cells: demonstrates the sensitivity
[7]
  sensitivity of Barrett's low grade dysplasia stem cells: sensitive
[8]; higher (nM) or low (pM) concentrations
  sensitivity of lung adenocarcinoma stem cells: demonstrate the sensitivity
[8]; higher and lower concentration
  lethality compared with another highly potent cytotoxic treatment: comparable lethality to another highly potent cytotoxic treatment
[5]
  sensitivity of Barrett's esophagus cells: particularly sensitive
  sensitivity of Barrett's esophagus cells compared to the other compounds of Table 1: significantly more sensitive

## CN[C@@H](C)C(=O)N[C@H](C(=O)N1CCC[C@H]1C(=O)N[C@H]1c2ccccc2C[C@H]1OCCCCNc1c(NCCCCO[C@@H]2Cc3ccccc3[C@@H]2NC(=O)[C@@H]2CCCN2C(=O)[C@@H](NC(=O)[C@H](C)NC)C2CCCCC2)c(=O)c1=O)C1CCCCC1 [I-10]
[1]
  sensitivity of pancreatic cancer stem cells: sensitive

## CN[C@@H](C)C(=O)N[C@H](C(=O)N1CCC[C@H]1C(=O)N[C@H]1c2ccccc2C[C@H]1OCCCNc1c(NCCCO[C@@H]2Cc3ccccc3[C@@H]2NC(=O)[C@@H]2CCCN2C(=O)[C@@H](NC(=O)[C@H](C)NC)C2CCCCC2)c(=O)c1=O)C1CCCCC1 [I-9]
[1]
  sensitivity of pancreatic cancer stem cells: sensitive

## CN[C@@H](C)C(=O)N[C@H](C(=O)N1CCC[C@H]1c1nc(C(=O)c2ccc(F)cc2)cs1)C1CCCCC1 [LCL 161]
[9]
  IC50: 0.4 nM

## CN[C@@H](C)C(=O)N[C@H](C(=O)N1CCC[C@H]1C(=O)N[C@H]1c2ccccc2C[C@H]1OCCCCCNc1c(NCCCCCO[C@@H]2Cc3ccccc3[C@@H]2NC(=O)[C@@H]2CCCN2C(=O)[C@@H](NC(=O)[C@H](C)NC)C2CCCCC2)c(=O)c1=O)C1CCCCC1 [I-3]
[1]
  sensitivity of pancreatic cancer stem cells: sensitive
